The source of these data is PMC4581321, “Inhibitory Effects of Amorphigenin on the Mitochondrial Complex I of Culex pipiens pallens Coquillett (Diptera: Culicidae)” (International Journal of Molecular Sciences, 2015).

Converted amounts (≈) assume the structure as drawn. Like-named read-outs stand apart in the source and are kept apart here.

The test system of series [1] is mitochondrial complex I of Cx. pipiens pallens. Description: In vivo inhibition of mitochondrial complex I activity (fourth-instar larvae exposed 24 h, then mitochondria isolated). Also noted: species or system Culex pipiens pallens. To be noted: for decrease of mitochondrial complex I activity compared with control: 24 h.
The test system is the same in series [2]. Description: In vitro inhibition of mitochondrial complex I activity (NADH oxidation at 340 nm, isolated larval mitochondria). Type of series: biochemical, Culex pipiens pallens. Particulars: NADH substrate; for IC50: isolated mitochondria, read-out: IC50 (μmol/L), in vitro. The protocol: The mitochondria of the fourth instar larvae of Cx. pipiens pallens were isolated according to the method of Akbar et al. with suitable modifications. The larvae were washed in a cold extraction medium (0.25 M sucrose solution containing 0.25% defatted BSA), then homogenized in a Potter–Elvehjem homogenizer under cold conditions. The homogenate was filtered through a moist muslin cloth and the filtrate centrifuged at 1000× g for 15 min at 4 °C. The residue was re-suspended in the extraction medium and centrifuged at 1000× g for 15 min at 4 °C. The supernatants from both centrifugations were combined and centrifuged at 12,000× g for 15 min at 4 °C. The mitochondrial pellet was re-suspended in the extraction medium, and stored at −80 °C until used. The protein concentration was determined by Smith’s method using BSA as the standard.
The mitochondrial complex I activity of Cx. pipiens pallens was determined as described by Birch-Machin et al. with adaptations for a 96-well format. It is well known that the mitochondrial complex I has two substrates, NADH and ubiquinone. […] The activity was measured by following the decrease in absorbance due to the oxidation of NADH at 340 nm with 425 nm as the reference wavelength. In brief, 20 μL of mitochondria and 160 μL of assay buffer containing 25 mM phosphate buffer (pH 7.2), 5 mM MgCl2, 2 mM NaN3 and 2.5 mg/mL BSA were added to each well of the 96-well plate, then the microplate was incubated for 20 min at 37 °C in a microplate reader (Spectramax 190 plate reader; Molecular Devices, Sunnyvale, CA, USA). Finally, the reaction was initiated by the addition of 10 μL of 0.13 mM NADH and measured for 5 min.
For the assay of in vitro inhibition of the mitochondrial complex I activities, 10 μL of different concentrations each of amorphigenin and rotenone were prepared in alcohol and diluted in 25 mM phosphate buffer (pH 7.2), then mixed with 10 μL of the mitochondria. The enzyme activity was immediately determined by the method as described above. For negative controls, 10 μL of 25 mM phosphate buffer (pH 7.2) instead of amorphigenin or rotenone were used in the assays. The inhibitory extent of the compounds was expressed as the inhibitor concentrations leading to 50% of the enzyme activity reduction (IC50).
Applying Microsoft Excel 2003 software (Microsoft, Redmond, WA, USA), the average enzyme activitie results, adjusted by Abbott, were subjected to probit analysis to calculate IC50 and correlation coefficient.

The test system is the same in series [3]. Description: Inhibition type and constants of mitochondrial complex I (enzyme-concentration plots, Lineweaver-Burk plots). The series is classed as biochemical, Culex pipiens pallens. Particulars: for inhibition type: Lineweaver-Burk plots, NADH and endogenous ubiquinone as substrates; for reversibility of inhibition: enzyme activity vs enzyme concentration plots. The text has this:
The inhibition effect on the mitochondrial complex I by amorphigenin and rotenone was also studied. […] The plots yielded straight lines passing through the origin.
The inhibitory kinetics of the mitochondrial complex I by amorphigenin and rotenone were studied by Lineweaver–Burk plots. […] Under the experimental conditions employed, the oxidative reaction of NADH by the mitochondrial complex I followed Michaelis–Menten kinetics. The double-reciprocal plots yielded a family of straight lines with different slopes and intercepts but they intersected one another in the second quadrant. […] Equilibrium constants for inhibitor binding with the free enzyme (KI) and with the enzyme-substrate complex (KIS) can be calculated according to the Foumulations (1) and (2) based on the slope and the vertical intercept against the concentration of inhibitors in Figure 3, respectively. (1) Slope=Ks/Vm(1+[I]/KI) (2) Intercept=1/Vm(1+[I]/KIS)
Different concentrations of NADH were incubated with the mitochondria and assay buffer to examine the enzyme kinetics of NADH with and without the addition of various concentrations of rotenoids. The inhibition type of the compounds on the enzyme was assayed by Lineweaver-Burk plots. The inhibition constant was determined by plots of the apparent 1/Vm or Km/Vm versus concentration of the inhibitor [40, 58].

The subject of series [4] is mitochondrial complex I prepared from a pig's heart. Details: method as in doi:10.1016/S0926-6593(65)80060-1. Particulars: cited from earlier work.
The subject of series [5] is mitochondrial complex I from submitochondrial particles of blow fly flight-muscle. Details: method as in doi:10.1016/S0960-894X(00)80645-9. To be noted: cited from earlier work.
Series [6] relates to NADH-ubiquinone reductase of bovine heart submitochondrial particles. Also noted: method as in PMID 7925463. Particulars: against exogenous quinine DB and DPB; cited from earlier work.
On the set-up of series [7]: method as in earlier work. Particulars: summer sunlight; cited from earlier work.
For series [8], the system named is 3th instar larvae of Bombyx mori. To be noted: cited from earlier work; for LC50: 3th instar larvae.
For series [9], the system named is bovine heart mitochondrial complex I. To be noted: cited from earlier work.
The subject of series [10] is larvae of Culex pipiens pallens. Also noted: method as in PMID 25690287. To be noted: cited from earlier work.
Series [11] concerns fourth instar larvae of A. aegypti. Also noted: method as in doi:10.1016/S0031-9422(00)83185-4. To be noted: 10 ppm; cited from earlier work.
Series [12] deals with mammalian NADH-ubiquinone reductase. Details: method as in PMID 7925463. Particulars: relative to rotenone; cited from earlier work.
The subject of series [13] is acetylcholinesterase enzyme. Also noted: method as in doi:10.1016/j.pestbp.2011.12.002. Particulars: cited from earlier work.

As usually defined, the LC50 is the concentration that kills 50% of the test population. Take `C=C(C)[C@H]1Cc2c(ccc3c2O[C@@H]2COc4cc(OC)c(OC)cc4[C@@H]2C3=O)O1` [Rotenone, reference compound]: the “decrease of mitochondrial complex I activity compared with control” value in series [1] (1.25 μmol/L, NADH substrate) is 1.45 fold; in series [1] (2.5 μmol/L, NADH substrate), 1.77 fold; in series [1] (5 μmol/L, NADH substrate) it was 2.41 fold; in series [2] (3 μmol/L) it was “significantly decreased”; in [2] (4 μmol/L), “significantly decreased”. Further, the IC50 stood at 2.52 µmol/L in [1] (read-out: IC50 (μmol/L), in vivo, fourth-instar larvae exposed 24 h, NADH substrate) and 3.14 µmol/L in [2]. Moreover, the inhibition type result is “mixed-I type” in series [3], “reversible competitive inhibitor” in series [5] and “noncompetitive” in series [6]. Moreover, the reversibility of inhibition entry in [3] is reported as “reversible”. The “in vitro IC50” value in series [4] is 1.8 × 10^−5 μmol/mg protein. Moreover, in [7], the “time until all toxicity is lost” value was 2 to 3 days. Further, the 50% lethal concentration (LC50) in [8] was 9.33 µg/mL (≈ 23.7 µM).
As to arylazidoamorphigenin, in [9], the “inhibitory potency compared with rotenone” value was “comparable with those of rotenone”.
Take `C=C(CO)[C@H]1Cc2c(ccc3c2O[C@@H]2COc4cc(OC)c(OC)cc4[C@@H]2C3=O)O1` [Amorphigenin]: the “decrease of mitochondrial complex I activity compared with control” value in series [1] (1.25 μmol/L, NADH substrate) is listed as 1.52 fold; in series [1] (2.5 μmol/L, NADH substrate), 1.78 fold; in series [1] (5 μmol/L, NADH substrate), 2.43 fold; in series [2] (2 μmol/L), 27.38%; in series [2] (3 μmol/L), 50.00%; in series [2] (4 μmol/L) it was 70.24%. Also, the IC50 in series [1] (fourth-instar larvae exposed 24 h, NADH substrate, read-out: IC50 (μmol/L), in vivo) was found to be 2.43 µmol/L; in series [2], 2.86 µmol/L. Moreover, in series [3], the inhibition type result is reported as “mixed-I type”. In addition, the reversibility of inhibition result in [3] is given as “reversible”. Also, the “LC50, larvicidal activity” value in series [10] is 4.29 µg/mL (≈ 10.5 µM). Also, in [10], the “LC90, larvicidal activity” value was 11.27 µg/mL (≈ 27.5 µM). In addition, the “inhibitory potency compared with rotenone” value in [9] is recorded as “comparable with rotenone”.
On to amorphigenin 8′-β-glucoside, for which, in series [11], the “loss of the fourth instar larvae” value is 85% and the pupae formation result is given as “without the formation of pupae”.
Turning to `C=C(C)C1Cc2c(ccc3c2OC2COc4cc(OC)c(OC)cc4C2C3O)O1` (stereo not shown) [rotenone reduced with NaBH4], the “in vitro IC50” value in [4] is listed as 2.0 × 10^−5 μmol/mg protein.
Take `C=C(C)[C@@H]1Cc2c(ccc3c2O[C@@H]2COc4cc(OC)c(OC)cc4[C@@H]2C3=O)O1` [5′β- epirotenone]: in [12], the “times less inhibiting than rotenone” value was “about 1000 times”. Besides, the LC50 in [8] was 225.70 µg/mL (≈ 572 µM). The “times less toxic than rotenone” value in series [8] (relative to rotenone) is listed as “about 24 times”.
With `Cc1ccc(C(C)C)cc1O` [Carvacrol, carvacrol], the “inhibition of acetylcholinesterase enzyme” value in series [13] (house flies, ticks and cockroaches) is “slight inhibition”; in series [13] (mosquito), “did not inhibit”.
For the molecule `C=C(C)[C@@H]1CCC2=CC(=O)C[C@@H](C)[C@]2(C)C1` [Nootkatone, nootkatone], the “inhibition of acetylcholinesterase enzyme” value in series [13] (any of the four arthropod models tested) was “did not inhibit”.
